Measured values from patent publication US6509369B2, “Anti-inflammatory compounds” (Ortho-McNeil Pharmaceutical, Inc., priority 1997, dated 2003).

These compounds were tested against T1, human glucocorticoid receptor (hGR) (Homo sapiens, UniProt P04150) (assay: human glucocorticoid receptor binding assay (displacement of 3(H) Triamcinolone acetonide)). Conditions: not given.
T1 construct: made in house; host or cells: Sf21 insect cells infected with baculovirus hGR, OR IM9 lymphoblast cell line (endogenous hGR)
T1 sequence (P04150 1-777): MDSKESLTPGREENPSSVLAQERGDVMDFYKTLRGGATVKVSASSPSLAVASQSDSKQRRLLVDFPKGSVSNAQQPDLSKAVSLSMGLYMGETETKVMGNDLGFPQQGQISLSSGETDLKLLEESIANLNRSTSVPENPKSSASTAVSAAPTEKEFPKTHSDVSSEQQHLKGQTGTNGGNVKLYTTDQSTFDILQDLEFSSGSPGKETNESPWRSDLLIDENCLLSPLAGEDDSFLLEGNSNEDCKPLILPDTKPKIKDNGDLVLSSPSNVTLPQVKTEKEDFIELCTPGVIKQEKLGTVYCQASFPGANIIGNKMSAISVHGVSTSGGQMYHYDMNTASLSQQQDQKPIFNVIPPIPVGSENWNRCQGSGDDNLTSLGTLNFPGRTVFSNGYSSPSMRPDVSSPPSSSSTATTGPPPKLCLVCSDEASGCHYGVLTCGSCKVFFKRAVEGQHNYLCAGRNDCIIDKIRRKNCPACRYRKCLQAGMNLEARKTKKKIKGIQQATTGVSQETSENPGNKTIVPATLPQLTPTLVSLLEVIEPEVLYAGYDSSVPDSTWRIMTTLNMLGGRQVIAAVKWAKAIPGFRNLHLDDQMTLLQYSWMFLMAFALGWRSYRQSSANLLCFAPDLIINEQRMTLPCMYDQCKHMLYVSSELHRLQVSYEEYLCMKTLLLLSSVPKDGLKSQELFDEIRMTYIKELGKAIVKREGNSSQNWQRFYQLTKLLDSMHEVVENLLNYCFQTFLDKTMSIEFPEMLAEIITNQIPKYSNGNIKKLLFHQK
Protocol: A human glucocorticoid receptor binding assay was carried out to determine the extent to which the compounds of this invention have the ability to bind to human glucocorticoid receptors. This binding ability may be indicative of the antiinflammatory activity of the compound. The test was carried out as follows.
Human glucocorticoid receptors were prepared from either insect cells (Sf21) infected with baculovirus hGR or from a lymphoblast cell line which expresses high levels of endogenous hGR (IM9). The receptor binding reactions, with or without test compounds, were set up in 96-well microtiter plates which were previously siliconized with SIGMACOTE™, a chlorinated organopolysiloxane in heptane. The binding components, 3(H) Triamcinolone acetonide (TAA), glycerol/molybdate-containing buffer and unlabeled compounds were added to the wells using a combination of BIOMEK laboratory automation system and repeat pipettes. After four hours of incubation, the samples were precipitated with polyethylene glycol and filtered through Whatman GF/F paper using a TOMTEK cell harvester. The filter mate with 96 samples were bound to a solid-phase scintillant and directly counted in a BETAPLATE counter. […] The activity of test compounds to displace 3(H) TAA binding to hGR is also expressed as percent inhibition at 1 μM.

Row | Compound | IC50 [nM]
1 | O=C(Cc1ccccc1Cl)NCC(c1ccccc1)C(c1ccc(F)cc1)c1ccc(F)cc1 (stereo not shown) [Compound 16] | 45
2 | COc1ccccc1CCC(=O)NCC(c1ccccc1)C(c1ccc(F)cc1)c1ccc(F)cc1 (stereo not shown) [Compound 23] | 22

Same assay, conditions: concentration not given

Row | Compound | hGR, value given as % [%]
3 | COc1ccccc1CC(=O)NCC(c1ccccc1)C(c1ccccc1)c1ccccc1 (stereo not shown) [Compound 5] | 62
4 | O=C(Cc1ccccc1Cl)NCC(c1ccccc1)C1c2ccccc2-c2ccccc21 (stereo not shown) [Compound 68] | 46
5 | O=C(Cc1ccccc1C(F)(F)F)NCC(c1ccccc1)C1c2ccccc2-c2ccccc21 (stereo not shown) [Compound 69] | 15
6 | Cc1ccc(C(=O)NCC(c2ccccc2)C2c3ccccc3-c3ccccc32)s1 (stereo not shown) [Compound 72] | 33

The compounds below were run on oxazolone-induced ear swelling (MOCH) in albino male CD-1 mice (assay: mouse oxazolone-induced contact hypersensitization (MOCH) ear swelling). Conditions: mouse, in vivo.
Assay type: in vivo
Design: % Inhibition MOCH: concentration or dose not given beside the values
Protocol: Several triphenylpropanamide compounds of this invention, having varying affinities for the human glucocorticoid receptor, were tested for topical antiinflammatory activity in mouse ear inflammation models. […] Compounds having receptor affinities closer to hydrocortisone were as nearly active as hydrocortisone in suppressing mouse oxazolone-induced contact hypersensitization (MOCH) and phorbol ester-induced ear edema. The in vivo studies of this example were conducted as follows.
In determining the MOCH using the compounds of this invention, albino male CD-1 mice, 7-9 weeks old were induced on the shaved abdomen with 50 μl of 3% oxazolone in acetone/corn oil (Day 0). On Day 5, a 20 μl volume of 2% oxazolone in acetone was applied to the dorsal left ear of the mouse . Compounds (made in ethanol/propylene glycol, 70:30) were applied to the left ear in 20 μl volume, one hour after oxazolone challenge. The right ear was not treated. The mice were sacrificed by carbon dioxide inhalation 24 hours after oxazolone challenge, the left and right ears were removed and a 7 mm biopsy was removed from each ear and weighed. The difference in biopsy weights between the right and left ears was calculated. Antiinflammatory effects of compounds were evident as an inhibition of the increase in ear weight.

Row | Compound | % Inhibition MOCH [%]
7 | O=C(Cc1ccc(Cl)cc1Cl)NCC(c1ccc2c(c1)OCO2)C(c1ccccc1)c1ccccc1 (stereo not shown) [Compound 112] | 36
8 | O=C(Cc1ccc(Cl)c(Cl)c1)NCC(c1ccc2c(c1)OCO2)C(c1ccccc1)c1ccccc1 (stereo not shown) [Compound 113] | 31
9 | O=C(CSc1ccccc1)NCC(c1ccc2c(c1)OCO2)C(c1ccccc1)c1ccccc1 (stereo not shown) [Compound 114] | 41
10 | O=C(NCC(c1ccc2c(c1)OCO2)C(c1ccccc1)c1ccccc1)c1ccsc1 (stereo not shown) [Compound 115] | 28
11 | O=C(NCC(c1ccc2c(c1)OCO2)C(c1ccccc1)c1ccccc1)c1cccs1 (stereo not shown) [Compound 116] | 62
12 | O=C(NCC(c1ccc2c(c1)OCO2)C(c1ccccc1)c1ccccc1)c1ccccc1 (stereo not shown) [Compound 117] | 28
13 | COc1ccccc1C(=O)NCC(c1ccc2c(c1)OCO2)C(c1ccccc1)c1ccccc1 (stereo not shown) [Compound 118] | 38
14 | O=C(NCC(c1ccc2c(c1)OCO2)C(c1ccccc1)c1ccccc1)c1cc2ccccc2[nH]1 (stereo not shown) [Compound 119] | 31
15 | O=C(NCC(c1ccc2c(c1)OCO2)C(c1ccccc1)c1ccccc1)c1cc(C(F)(F)F)cc(C(F)(F)F)c1 (stereo not shown) [Compound 120] | 27
16 | O=C(NCC(c1ccc2c(c1)OCO2)C(c1ccccc1)c1ccccc1)c1cccc([N+](=O)[O-])c1 (stereo not shown) [Compound 121] | 10
17 | Cc1ccc(C(=O)NCC(c2ccc3c(c2)OCO3)C(c2ccccc2)c2ccccc2)cc1[N+](=O)[O-] (stereo not shown) [Compound 122] | 33
18 | N#Cc1cccc(C(=O)NCC(c2ccc3c(c2)OCO3)C(c2ccccc2)c2ccccc2)c1 (stereo not shown) [Compound 123] | 51
19 | O=C(CCc1ccccc1)NCC(c1ccc2c(c1)OCO2)C(c1ccccc1)c1ccccc1 (stereo not shown) [Compound 124] | 35
20 | CC(C)(C)c1ccc(C(=O)NCC(c2ccc3c(c2)OCO3)C(c2ccccc2)c2ccccc2)cc1 (stereo not shown) [Compound 125] | 31
21 | Cc1ccc(C(=O)NCC(c2ccc3c(c2)OCO3)C(c2ccccc2)c2ccccc2)cc1 (stereo not shown) [Compound 126] | 46
22 | O=C(NCC(c1ccc2c(c1)OCO2)C(c1ccccc1)c1ccccc1)c1ccc(F)cc1F (stereo not shown) [Compound 127] | 61
23 | O=C(NCC(c1ccc2c(c1)OCO2)C(c1ccccc1)c1ccccc1)c1ccc(F)cc1 (stereo not shown) [Compound 128] | 54
24 | O=C(NCC(c1ccc2c(c1)OCO2)C(c1ccccc1)c1ccccc1)c1ccccc1Cl (stereo not shown) [Compound 129] | 41
25 | O=C(NCC(c1ccc2c(c1)OCO2)C(c1ccccc1)c1ccccc1)c1ccc(Cl)cc1 (stereo not shown) [Compound 130] | 37

Row | Compound | % Inhibition MOCH [%]
26 | O=C(NCC(c1ccc2c(c1)OCO2)C(c1ccccc1)c1ccccc1)c1cc(Cl)cc(Cl)c1 (stereo not shown) [Compound 131] | 18
27 | Cc1ccccc1C(=O)NCC(c1ccc2c(c1)OCO2)C(c1ccccc1)c1ccccc1 (stereo not shown) [Compound 133] | 46
28 | O=C(Cc1ccc(-c2ccccc2)cc1)NCC(c1ccc2c(c1)OCO2)C(c1ccccc1)c1ccccc1 (stereo not shown) [Compound 134] | 29
29 | O=C(Cc1cccs1)NCC(c1ccc(C(F)(F)F)cc1)C(c1ccccc1)c1ccccc1 (stereo not shown) [Compound 135] | 31
30 | O=C(NCC(c1ccc(C(F)(F)F)cc1)C(c1ccccc1)c1ccccc1)c1cccs1 (stereo not shown) [Compound 136] | 38
31 | O=C(NCC(c1ccc(C(F)(F)F)cc1)C(c1ccccc1)c1ccccc1)c1ccccc1Cl (stereo not shown) [Compound 137] | 45
32 | O=C(Cc1ccc(Cl)c(Cl)c1)NCC(c1ccc(C(F)(F)F)cc1)C(c1ccccc1)c1ccccc1 (stereo not shown) [Compound 138] | 33
33 | O=C(NCC(c1ccc(C(F)(F)F)cc1)C(c1ccccc1)c1ccccc1)c1ccc(Cl)cc1Cl (stereo not shown) [Compound 139] | 42
34 | Cc1cccc(CC(=O)NCC(c2ccc(C(F)(F)F)cc2)C(c2ccccc2)c2ccccc2)c1 (stereo not shown) [Compound 140] | 57
35 | O=C(Cc1ccccc1)NCC(c1ccc(C(F)(F)F)cc1)C(c1ccccc1)c1ccccc1 (stereo not shown) [Compound 141] | 66
36 | O=C(Cc1ccccn1)NCC(c1ccc(C(F)(F)F)cc1)C(c1ccccc1)c1ccccc1 (stereo not shown) [Compound 142] | 39
37 | CSc1ccc(CC(=O)NCC(c2ccc(C(F)(F)F)cc2)C(c2ccccc2)c2ccccc2)cc1 (stereo not shown) [Compound 143] | 19
38 | COc1cc(Cl)ccc1C(=O)NCC(c1ccc(C(F)(F)F)cc1)C(c1ccccc1)c1ccccc1 (stereo not shown) [Compound 144] | 33
39 | O=C(Cc1cc2cc(Cl)ccc2s1)NCC(c1ccc(C(F)(F)F)cc1)C(c1ccccc1)c1ccccc1 (stereo not shown) [Compound 145] | 54
40 | O=C(Cc1ccccc1Cl)NCC(c1ccc(C(F)(F)F)cc1)C(c1ccccc1)c1ccccc1 (stereo not shown) [Compound 146] | 39
41 | O=C(Cc1ccc(F)cc1F)NCC(c1ccc(C(F)(F)F)cc1)C(c1ccccc1)c1ccccc1 (stereo not shown) [Compound 147] | 55
42 | COc1ccccc1CC(=O)NCC(c1ccc(C(F)(F)F)cc1)C(c1ccccc1)c1ccccc1 (stereo not shown) [Compound 148] | 42
43 | COc1cc(CC(=O)NCC(c2ccc(C(F)(F)F)cc2)C(c2ccccc2)c2ccccc2)cc(OC)c1 (stereo not shown) [Compound 149] | 42

Same assay, conditions: topical to mouse ear, 1 mg, one hour after oxazolone challenge, ear biopsy weight at 24 hours

Row | Compound | Oxazolone Ear Swelling (MOCH) % inhibition vs. Vehicle at 1 mg [%]
44 | COc1ccccc1CC(=O)NCC(c1ccccc1)C(c1ccccc1)c1ccccc1 (stereo not shown) [Compound 5] | 13
45 | O=C(Cc1ccccc1Cl)NCC(c1ccccc1)C1c2ccccc2-c2ccccc21 (stereo not shown) [Compound 68] | 28
46 | O=C(Cc1ccccc1C(F)(F)F)NCC(c1ccccc1)C1c2ccccc2-c2ccccc21 (stereo not shown) [Compound 69] | 43
47 | Cc1ccc(C(=O)NCC(c2ccccc2)C2c3ccccc3-c3ccccc32)s1 (stereo not shown) [Compound 72] | 50

Same assay, conditions: topical, mouse ear

Row | Compound | topical antiinflammatory activity in the oxazolone model (in words)
48 | O=C(Cc1ccccc1Cl)NCC(c1ccccc1)C(c1ccc(F)cc1)c1ccc(F)cc1 (stereo not shown) [Compound 16] | moderate topical activity
49 | COc1ccccc1CCC(=O)NCC(c1ccccc1)C(c1ccc(F)cc1)c1ccc(F)cc1 (stereo not shown) [Compound 23] | moderate topical activity
